Results reported in the supplement of paper PMC9938120.

Columns and labels:
Experiment in all cases: drug sensitivity score (DSS3, normalised partial AUC of % inhibition dose-response) (DSS (score)); higher = more sensitive (stronger inhibition of viability); extreme values may be limits of the assay
FMOC22 = patient-derived mucinous ovarian cancer cells; settings: 72 h; library: FO5A; assay format: 2D, 384-well, CellTiter-Glo
Procedure, shortened: (§1)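 Cells were dispensed onto 384-well flat clear-bottom plates already holding compounds at five concentrations over a 10,000-fold range, using patient-derived ovarian cancer cells at passage under 10. Incubation lasted 72 h at 37 °C in 5% CO2, after which CellTiter-Glo viability data were processed in Breeze. Higher drug sensitivity scores, each a partial area under the percent-inhibition dose-response curve divided by the log of the upper asymptote, mean more sensitive cells.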

FMOC14 = patient-derived high-grade serous ovarian cancer cells; settings: 72 h; library: FO5A; assay format: 2D, 384-well, CellTiter-Glo
Procedure, shortened: as §1

FMOC03 = patient-derived mucinous ovarian cancer cells; settings: 72 h; library: FO5A; assay format: 2D, 384-well, CellTiter-Glo
Procedure, shortened: as §1

FMOC24 = patient-derived high-grade serous ovarian cancer cells; settings: 72 h; library: FO5A; assay format: 2D, 384-well, CellTiter-Glo
Procedure, shortened: as §1

FMOC25_2 = patient-derived low-grade serous ovarian cancer cells; settings: 72 h; library: FO5A; assay format: 2D, 384-well, CellTiter-Glo
Procedure, shortened: as §1

FMOC02_2 = patient-derived low-grade serous ovarian cancer cells; settings: 72 h; library: FO5A; assay format: 2D, 384-well, CellTiter-Glo
Procedure, shortened: as §1

FMOC02_3 = patient-derived low-grade serous ovarian cancer cells; settings: 72 h; library: FO5A; assay format: 2D, 384-well, CellTiter-Glo
Procedure, shortened: as §1

FMOC09 = patient-derived high-grade serous ovarian cancer cells; settings: 72 h; library: FO5A; assay format: 2D, 384-well, CellTiter-Glo
Procedure, shortened: as §1

FMOC25_1 = patient-derived low-grade serous ovarian cancer cells; settings: 72 h; library: FO4B; assay format: 2D, 384-well, CellTiter-Glo
Procedure, shortened: as §1

FMOC06 = patient-derived mucinous ovarian cancer cells; settings: 72 h; library: FO5A; assay format: 2D, 384-well, CellTiter-Glo
Procedure, shortened: as §1

| SMILES | drug sensitivity score (FMOC22) | drug sensitivity score (FMOC14) | drug sensitivity score (FMOC03) | drug sensitivity score (FMOC24) | drug sensitivity score (FMOC25_2) | drug sensitivity score (FMOC02_2) | drug sensitivity score (FMOC02_3) | drug sensitivity score (FMOC09) | drug sensitivity score (FMOC25_1) | drug sensitivity score (FMOC06) |
| --- | --- | --- | --- | --- | --- | --- | --- | --- | --- | --- |
| O=C(O)C1(C(=O)O)CCC1.[NH2-].[NH2-].[Pt+2] [Carboplatin] | 2.8 | 4.9 | 0.6 | 8.3 | 2.8 | 4.9 | 5 | 9.1 | 1.3 | 1.3 |
| C=CC(=O)Nc1cc(Nc2nccc(-c3cn(C)c4ccccc34)n2)c(OC)cc1N(C)CCN(C)C [Osimertinib] | 3.3 | 6.1 | 11.7 | 4.35 | 11.2 | 15 | 12 | 11.3 | 7.3 | 4 |
| CCn1cc(-c2ccnc3[nH]c(-c4cccc(CN(C)C)c4)cc23)c(-c2ccc(NC(=O)N(C)C)cc2)n1 | 0.1 | 0 | 0 | 0.55 | 2.2 | 0 | 2.6 | 0 | 0 | 0 |
| CCOc1cc2ncc(C#N)c(Nc3ccc(OCc4ccccn4)c(Cl)c3)c2cc1NC(=O)/C=C/CN(C)C [Neratinib] | 2.3 | 2.5 | 12.3 | 1.1 | 16.5 | 14.1 | 18.3 | 9.8 | 8.7 | 2.2 |
| Cc1cc2c(C(=O)NC[C@H](C)c3ccccc3)c(O)c(O)cc2c(O)c1-c1c(C)cc2c(C(=O)NC[C@H](C)c3ccccc3)c(O)c(O)cc2c1O [Sabutoclax] | 10.8 | 12.6 | 9.6 | 6.6 | 5.3 | 5.2 | 9.1 | 9.3 | 6.2 | 5.6 |
| CC(C)C[C@H](NC(=O)[C@H](CCc1ccccc1)NC(=O)CN1CCOCC1)C(=O)N[C@@H](Cc1ccccc1)C(=O)N[C@@H](CC(C)C)C(=O)[C@@]1(C)CO1 [Carfilzomib] | 20.1 | 23.6 | 18 | 27.4 | 25.5 | 18.7 | 24.6 | 21.6 | 21.6 | 22.4 |
| Nc1ccccc1NC(=O)c1ccc(CNC(=O)OCc2cccnc2)cc1 [Entinostat] | 5 | 8.6 | 8.2 | 8.4 | 3.7 | 8.6 | 7.5 | 1.6 | 4.3 | 7.6 |
| C#Cc1cccc(Nc2ncnc3cc(OCCOC)c(OCCOC)cc23)c1 [Erlotinib] | 1.8 | 3.7 | 14.7 | 3.6 | 14.1 | 15.7 | 15.1 | 11 | 11.7 | 3 |
| CC[C@H](CC#N)OC(=O)N[C@@H](C)c1cccc(NC(=O)Nc2ccc(-c3cnco3)c(OC)c2)c1 [AVN944] | 14.2 | 11 | 13.4 | 6.45 | 10.3 | 9.8 | 12.6 | 11.2 | 9.7 | 13.4 |
| CCN(CC)CCOc1ccc(C(=C(Cl)c2ccccc2)c2ccccc2)cc1 [Clomifene] | 4.8 | 5 | 7 | 9.9 | 7.2 | 8.2 | 9.1 | 5 | 4.7 | 5.6 |
| CCn1c(=O)c(-c2ccc(Cl)cc2Cl)cc2cnc(Nc3ccc(N4CCNCC4)c(F)c3)nc21 [FRAX486] | 0.1 | 0.2 | 2.4 | 9.45 | 11.9 | 12.2 | 14.7 | 3.7 | 3.2 | 1.7 |
| O=C1CN2Cc3c(ccc(Cl)c3Cl)N=C2N1 [Anagrelide] | 0 | 0 | 0 | 0 | 0 | 0 | 0 | 18.7 | 0 | 0.7 |
| CC(=O)[C@]1(O)Cc2c(O)c3c(c(O)c2[C@@H](O[C@H]2C[C@H](N)[C@H](O)[C@H](C)O2)C1)C(=O)c1ccccc1C3=O [Idarubicin] | 7 | 6.1 | 4.8 | 9.4 | 9.1 | 7.8 | 9.1 | 6.3 | 9.2 | 5.8 |
| CN(C)C[C@@H]1CCn2cc(c3ccccc32)C2=C(C(=O)NC2=O)c2cn(c3ccccc23)CCO1 [Ruboxistaurin] | 3.2 | 6.8 | 3 | 6.45 | 9.3 | 9.7 | 12.8 | 7.5 | 5.4 | 8.7 |
| CC[C@]1(O)C[C@H]2CN(CCc3c([nH]c4ccccc34)[C@@](C(=O)OC)(c3cc4c(cc3OC)N(C=O)[C@H]3[C@@](O)(C(=O)OC)[C@H](OC(C)=O)[C@]5(CC)C=CCN6CC[C@]43[C@@H]65)C2)C1 [Vincristine] | 5.9 | 0.3 | 6.2 | 5.05 | 13 | 4.7 | 15.4 | 12.5 | 9.4 | 3.4 |
| CNC(=O)c1nn(C)c2c1C(C)(C)Cc1cnc(Nc3ccc(N4CCN(C)CC4)cc3)nc1-2 [Milciclib] | 6.2 | 6.3 | 8.6 | 8.25 | 13.1 | 12.5 | 15.1 | 7.6 | 8.5 | 6.8 |
| C/C=C1\NC(=O)[C@H]2CSSCC/C=C/[C@H](CC(=O)N[C@H](C(C)C)C(=O)N2)OC(=O)[C@H](C(C)C)NC1=O [Romidepsin] | 26.3 | 28.7 | 28.3 | 32.9 | 28.9 | 26.3 | 32.6 | 17.6 | 30.1 | 27.6 |
